Data published in ChEMBL document CHEMBL1614632, “Trend analysis of a database of intravenous pharmacokinetic parameters in humans for 670 drug compounds” (Drug Metab Dispos, 2008).

Tests used:
[1] = clinical; conditions: human, in vivo, iv, Vdss
[2] = clinical; conditions: human, in vivo, iv
[3] = clinical; conditions: human, in vivo, iv, CL
[4] = clinical; conditions: human, in vivo, iv, t1/2

| SMILES | Vd [1] [L/kg] | MRT [2] [h] | clearance [3] [mL/min/kg] | half-life [4] [h] |
| --- | --- | --- | --- | --- |
| CCO[C@@H](Cc1ccc(OCCc2ccc(OS(C)(=O)=O)cc2)cc1)C(=O)O [TESAGLITAZAR] | 0.13 | 56 | 0.039 | 45 |
| S=P(N1CC1)(N1CC1)N1CC1 [THIOTEPA] | 1.6 | 4 | 6.7 | 2.7 |
| Cc1ccsc1C(=CCCN1CCC[C@@H](C(=O)O)C1)c1sccc1C [TIAGABINE] | 1.1 | 12 | 1.6 | 10 |
| CC(C)(C)NC[C@H](O)COc1nsnc1N1CCOCC1 [TIMOLOL] | 1.5 | 3 | 8.5 | 2.2 |
| CCS(=O)(=O)CCn1c([N+](=O)[O-])cnc1C [TINIDAZOLE] | 0.59 | 16 | 0.6 | 13 |
| Clc1ccc2nsnc2c1NC1=NCCN1 [TIZANIDINE] | 2.4 | 3.6 | 11 | 2.4 |
| Cc1cccc(C)c1NC(=O)C(C)N (stereo unspecified) [TOCAINIDE] | 1.8 | 14 | 2.2 | 12 |
| Cc1ccc(O)c([C@H](CCN(C(C)C)C(C)C)c2ccccc2)c1 [TOLTERODINE] | 1.5 | 2.98 | 8.4 | 2.4 |
| Cc1cccc(Nc2ccncc2S(=O)(=O)NC(=O)NC(C)C)c1 [TORSEMIDE] | 0.21 | 6.6 | 0.53 | 5.1 |
| COc1cc2c(cc1O)CCN[C@]21CS[C@@H]2c3c(OC(C)=O)c(C)c4c(c3[C@H](COC1=O)N1[C@@H]2[C@H]2c3c(cc(C)c(OC)c3O)C[C@@H]([C@@H]1O)N2C)OCO4 [TRABECTEDIN] | 25 | 35 | 12 | 44 |
| COc1cccc(C2(O)CCCCC2CN(C)C)c1 (stereo unspecified) [TRAMADOL] | 2.8 | 7.2 | 6.5 | 5.8 |
| NC[C@H]1CC[C@H](C(=O)O)CC1 [TRANEXAMIC ACID] | 0.38 | 2.6 | 2.4 | 2.3 |
| O=c1n(CCCN2CCN(c3cccc(Cl)c3)CC2)nc2ccccn12 [TRAZODONE] | 0.52 | 6.2 | 1.4 | 7.3 |
| COc1cc2c(N)nc(N3CCN(C(=O)OCC(C)(C)O)CC3)nc2c(OC)c1OC [TRIMAZOSIN] | 0.18 | 3.1 | 0.96 | 3.1 |
| CN1[C@@H]2CC[C@H]1C[C@@H](OC(=O)c1c[nH]c3ccccc13)C2 [TROPISETRON] | 9.7 | 6.3 | 26 | 5.6 |
| CCCC[C@@H]1CC(=O)[C@]2(O)O[C@@H]3[C@@H](NC)[C@@H](O)[C@@H](NC)[C@H](O)[C@H]3O[C@@H]2O1 [TROSPECTOMYCIN] | 0.7 | 6.9 | 1.7 | 11 |
| Nc1ccn([C@@H]2CO[C@H](CO)O2)c(=O)n1 [TROXACITABINE] | 1 | 6.9 | 2.4 | 82 |
| CN[C@H](CC(C)C)C(=O)N[C@H]1C(=O)N[C@@H](CC(N)=O)C(=O)N[C@H]2C(=O)N[C@H]3C(=O)N[C@H](C(=O)N[C@H](C(=O)O)c4cc(O)cc(O)c4-c4cc3ccc4O)[C@H](O)c3ccc(c(Cl)c3)Oc3cc2cc(c3O[C@@H]2O[C@H](CO)[C@@H](O)[C@H](O)[C@H]2O[C@H]2C[C@](C)(N)[C@H](O)[C@H](C)O2)Oc2ccc(cc2Cl)[C@H]1O [VANCOMYCIN] | 0.54 | 6.9 | 1.3 | 6.5 |
| CCOc1ccccc1OCC1CNCCO1 (stereo unspecified) [VILOXAZINE] | 0.73 | 5.8 | 2.1 | 4.1 |
